This assay has as its target CDK2 (UniProt P24941).

pKd: −log10 of the molar value.

As for `O=C1c2ccccc2-c2n[nH]c3cccc1c23`, the pKd was 5.49.

Broadly, the pKd is the negative decadic logarithm of the Kd, by convention in mol/L. Lower therefore signals a large Kd.

Values taken from the Kinase Knowledgebase extract (Sharma et al. 2016).
